Data published in patent publication US9139796B2, “Methods of and formulations for reducing and inhibiting the growth of the concentration of microbes in water-based fluids and systems used with them” (Dow Global Technologies LLC, priority 2007, dated 2015).
Read-outs that look alike come from different tables or passages of the source.

Tests used:
[1] = test system: Staphylococcus aureus ATCC 6538, Klebsiella pneumoniae ATCC 8308, Bacillus subtillus ATCC 8473, Escherichia coli ATCC 11229; assay: Biocidal activity against standard aerobic bacterial strains in 0.85% NaCl solution, live count by serial dilution; type: cell-based; details: biocide alone; average for four standard aerobic bacteria; ~10^7 CFU/mL, 37° C.
Description: (§1) A sterile 0.85% NaCl solution is contaminated with bacterial inoculums at final bacterial concentrations of ˜10^7 CFU/mL. At day zero, either oxazolidine compound (BIOBAN™ CS-1135, 78% 4,4-dimethyloxazolidine in water, The Dow Chemical Company, or BIOBAN™ CS-1246, 97.5% 7-ethylbicyclooxazolidine in water, The Dow Chemical Company), THPS (AQUCAR™ THPS 75, 75% THPS in water, The Dow Chemical Company), or a combination of oxazolidine compound and THPS is added and the solution mixed well to provide a desired final concentration. […]
The testing protocol described above is used for the standard bacterial strains Staphylococcus aureus ATCC 6538, Klebsiella pneumoniae ATCC 8308, Bacillus subtillus ATCC 8473, Escherichia coli ATCC 11229.
(§2) The testing protocol described in Example 1 is used for aerobic bacteria and anaerobic sulfate reducing bacteria.

[2] = test system: oil/gas field-isolated sulfate reducing bacteria (SRB); assay: Biocidal activity against oil/gas field-isolated sulfate reducing bacteria under anaerobic environment in deaerated salt solution; type: cell-based
Description: as §1
The protocol used to test against oil/gas field-isolated sulfate reducing bacteria (SRB) is performed as described above, but under anaerobic environment (Bactron III anaerobic chamber) and using a deaerated sterile salt solution (1.2490 g NaCl, 2.9290 g NaHCO3, 0.1910 g Na2CO3, 0.0060 g Na2SO4, 0.033 g CaCl2, and 0.0590 g MgCl2.6H2O in 1 L water) instead of 0.85% NaCl solution.
as §2

[3] = biocide alone, field anaerobic SRB, anaerobic chamber

Compound | Concentration required to achieve at least 3 log bacterial reduction in 1 hr [1] | Concentration required to achieve at least 3 log bacterial reduction in 1 hr [2, 3] | Concentration required to achieve at least 3 log bacterial reduction in 1 hr [2]
CC1(C)COCN1 [4,4-dimethyloxazolidine] | 272.04 ppm, active | 1000 ppm, active | –
tetrakis(hydroxymethyl)phosphonium sulfate [THPS] | 44.49 ppm, active | – | 33.35 ppm, active
CCC12COCN1COC2 [7-ethylbicyclooxazolidine, 5-ethyl-1-aza-3,7-dioxabicyclo[3.3.0]octane] | 272.04 ppm, active | >1000 ppm, active | –
